Results as given in patent US20130184272A1, “DIABETES THERAPEUTIC AGENT” (TAKEDA PHARMACEUTICAL COMPANY LIMITED, priority 2010, published 2013).

Experiments:
[1] = system: Mouse-derived myoblast line C2C12 cell; experiment: Cell differentiation promoting activity in myoblast (creatine kinase activity); format: cell-based; conditions: Mus musculus, C2C12, 48 h; compound at 0.01 μM (**); 2 days; without compound = 100%; read-out: creatine kinase activating action (%)
Protocol: • (1) Mouse-derived myoblast line C2C12 cell (Dainippon Pharmaceutical Co., Ltd.) was subcultured in a high glucose Eagle's modified Dulbecco's medium (GIBCO) added with 10% calf fetal bovine serum (GIBCO), 100 unit/mL penicillin and 100 μg/mL streptomycin (hereinafter to be referred to as a growth medium), plated at 5000 cells/cm^2 and cultured at 37° C., under 5% CO2. • (2) When the cells reached subconfluence of not less than 90%, the medium was exchanged with high glucose Eagle's modified Dulbecco's medium (GIBCO) added with (i) 2% horse serum (GIBCO) and (ii) penicillin, streptomycin and a test compound (hereinafter to be referred to as a differentiation medium) and the cells were cultured for 2 days. To the control group was added DMSO solution instead of the test compound. • (3) The cells were washed with PBS, 0.5% NP-40 solution was added, and the cells were lysed by freeze-thawing. The cell extract was centrifuged and the creatine kinase activity in the supernatant was measured as an index of muscle differentiation. The creatine kinase activity was measured using CPKII Test Wako (Wako Pure Chemical Industries, Ltd.) according to the manual of the kit.
The numerical values in Table 1 show creatine kinase activity of the compound addition group when the creatine kinase activity without addition of the compound is 100%, and * means measurement with addition of the compound at 10 μM, ** at 0.01 μM, and others at 1 μM.

[2] = system: Female KKA^y mice; experiment: Anti-diabetes action and dyslipidemia improving effect in KKA^y mouse; format: in vivo; conditions: mixed feed dose 0.0001 %, 2 weeks; control group = 100
Protocol: Female KKA^y mice (12-week-old, CLEA Japan, Inc.) were bred while allowing free ingestion of both feed and water. The mice were bred for acclimation with powder CE-2 (CLEA Japan, Inc.) from 2 weeks before administration of the compound. The body weight and plasma markers were measured and, at 14 weeks of age, they were divided such that the measured values were uniform with those of the control group. The compound of Reference Example 1, 2, 7, 8, 9 or 22 was administered for 2 weeks in a mixed feed (0.01-0.0001%). On the last day, plasma levels of glucose, insulin, total cholesterol and neutral lipid were measured.

[3] = system: succinic acid dehydrogenase activity of mitochondria; experiment: Succinic acid dehydrogenase activity in muscle cell; format: cell-based, Mouse; conditions: for succinic acid dehydrogenase activity: two days, control group 100
Protocol: • (1) In the same manner as in Example 1, C2C12 cells were cultured in a growth medium to not less than 90% confluence. • (2) The medium was exchanged with a differentiation medium, and the cells were cultured until observation of myotube formation under a microscope. • (3) The compounds of Reference Example 1 and Reference Example 7 were added, and the cells were cultured for two days. • (4) ATP content was measured using Cell Titer-Glo™ Luminescence cell viable assay (Promega) and succinic acid dehydrogenase activity of mitochondria was measured using Cell Counting Kit-8 (Dojin). The data of Table 17 show mean±standard deviation at n=3-4 (n is the number of samples).

[4] = system: Male C57BL/6J mice on a high-fat diet; experiment: Antiobesity, dyslipidemia and diabetes improving effect in mouse fed with high-fat diet; format: in vivo; parameters: plasma leptin (mg/dL): unit not given here; conditions: for epididymal fat mass / gastrocnemius muscle weight (g/100 g body weight) / hepatocyte weight / mesenteric fat mass: Day 38
Protocol: Male C57BL/6J mice (CLEA Japan, Inc.) were bred from 5-week-old on a high-fat diet (D12451, research diet) while allowing free ingestion of both feed and water to prepare obesity mice. The mice were bred for acclimation for 2 weeks from 21-week-old. The body weight and plasma markers were measured when 23-week-old, the mice were divided into 6 groups (6 per group) such that the values thereof were uniform, and Reference Example 1 (0.01-0.1 mg/kg) or Reference Example 7 (1-3 mg/kg) was orally administered for 5 weeks. After 14 and 28 days, plasma levels of total cholesterol, neutral lipid, glucose, insulin, leptin, adiponectin and glycated hemoglobin were measured. On the last day, the mice were autopsied, and weights of mesenteric fat, epididymal fat, liver and gastrocnemius muscle were measured. The data of Table 18 show mean±standard deviation at n=5-6 (n is the number of samples).

Cc1ncccc1Oc1sc(C(N)=O)c2c1-c1c(cnn1C)CC2 [Ref. Ex. 1, 1-methyl-8-[(2-methylpyridin-3-yl)oxy]-4,5-dihydro-1H-thieno[3,4-g]indazole-6-carboxamide]
activity at 0.01 µM [1]: 175%
plasma glucose (%) [2]: 53.2 ± 19.1%
plasma insulin (%) [2]: 27.3 ± 19.5%
plasma neutral lipid (%) [2]: 38.9 ± 11.0%
plasma total cholesterol (%) [2]: 61.6 ± 10.8%
succinic acid dehydrogenase activity (in words) [3]: increased
succinic acid dehydrogenase activity ([3]; compound 0.01 nM): 98 ± 10
succinic acid dehydrogenase activity ([3]; compound 0.1 nM): 113 ± 5
succinic acid dehydrogenase activity ([3]; compound 1 nM): 124 ± 3
average amount of ingestion ([4]; 0.01 mg/kg oral): 3.7 ± 0.2 g/day
body weight (g) change ([4]; 0.01 mg/kg oral): 3.0 ± 1.2 g
body weight ([4]; 0.01 mg/kg oral, Day 0): 40.9 ± 2.5 g
glycated hemoglobin (%) ([4]; 0.01 mg/kg oral, Day 0): 4.5 ± 0.2%
plasma adiponectin (μg/dL)) ([4]; 0.01 mg/kg oral, Day 0): 15.9 ± 3.4 µg/dL
plasma glucose ([4]; 0.01 mg/kg oral, Day 0): 178.1 ± 26.5 mg/dL
plasma insulin ([4]; 0.01 mg/kg oral, Day 0): 4.2 ± 2.0 ng/mL
plasma leptin (mg/dL) ([4]; 0.01 mg/kg oral, Day 0): 54.2 ± 21.0
plasma neutral fats ([4]; 0.01 mg/kg oral, Day 0): 73.4 ± 15.1 mg/dL
plasma total cholesterol ([4]; 0.01 mg/kg oral, Day 0): 222.1 ± 45.4 mg/dL
glycated hemoglobin (%) ([4]; 0.01 mg/kg oral, Day 14): 4.0 ± 0.3 %
plasma adiponectin (μg/dL)) ([4]; 0.01 mg/kg oral, Day 14): 15.5 ± 2.5 µg/dL
plasma glucose ([4]; 0.01 mg/kg oral, Day 14): 156.0 ± 23.4 mg/dL
plasma insulin ([4]; 0.01 mg/kg oral, Day 14): 6.2 ± 5.8 ng/mL
plasma leptin (mg/dL) ([4]; 0.01 mg/kg oral, Day 14): 71.2 ± 22.0
plasma neutral fats ([4]; 0.01 mg/kg oral, Day 14): 59.4 ± 18.5 mg/dL
plasma total cholesterol ([4]; 0.01 mg/kg oral, Day 14): 182.6 ± 19.5 mg/dL
glycated hemoglobin (%) ([4]; 0.01 mg/kg oral, Day 28): 3.8 ± 0.4%
plasma adiponectin (μg/dL)) ([4]; 0.01 mg/kg oral, Day 28): 14.7 ± 2.9 µg/dL
plasma glucose ([4]; 0.01 mg/kg oral, Day 28): 162.9 ± 24.4 mg/dL
plasma insulin ([4]; 0.01 mg/kg oral, Day 28): 5.4 ± 3.9 ng/mL
plasma leptin (mg/dL) ([4]; 0.01 mg/kg oral, Day 28): 81.8 ± 23.9
plasma neutral fats ([4]; 0.01 mg/kg oral, Day 28): 45.5 ± 14.1 mg/dL
plasma total cholesterol ([4]; 0.01 mg/kg oral, Day 28): 187.2 ± 15.9 mg/dL
body weight ([4]; 0.01 mg/kg oral, Day 37): 44.9 ± 2.6 g
epididymal fat mass ([4]; 0.01 mg/kg oral): 0.91 ± 0.26 g
gastrocnemius muscle weight (g/100 g body weight) ([4]; 0.01 mg/kg oral): 0.373 ± 0.030 g/100 g body weight
hepatocyte weight ([4]; 0.01 mg/kg oral): 1.81 ± 0.23 g
mesenteric fat mass ([4]; 0.01 mg/kg oral): 0.87 ± 0.17 g
average amount of ingestion ([4]; 0.03 mg/kg oral): 3.2 ± 0.2 g/day
body weight (g) change ([4]; 0.03 mg/kg oral): -0.2 ± 0.9 g
body weight ([4]; 0.03 mg/kg oral, Day 0): 40.9 ± 2.2 g
glycated hemoglobin (%) ([4]; 0.03 mg/kg oral, Day 0): 4.5 ± 0.1%
plasma adiponectin (μg/dL)) ([4]; 0.03 mg/kg oral, Day 0): 18.0 ± 4.0 µg/dL
plasma glucose ([4]; 0.03 mg/kg oral, Day 0): 178.5 ± 27.8 mg/dL
plasma insulin ([4]; 0.03 mg/kg oral, Day 0): 6.0 ± 3.7 ng/mL
plasma leptin (mg/dL) ([4]; 0.03 mg/kg oral, Day 0): 70.3 ± 19.6
plasma neutral fats ([4]; 0.03 mg/kg oral, Day 0): 72.3 ± 34.0 mg/dL
plasma total cholesterol ([4]; 0.03 mg/kg oral, Day 0): 238.2 ± 19.0 mg/dL
glycated hemoglobin (%) ([4]; 0.03 mg/kg oral, Day 14): 4.1 ± 0.1 %
plasma adiponectin (μg/dL)) ([4]; 0.03 mg/kg oral, Day 14): 19.5 ± 3.1 µg/dL
plasma glucose ([4]; 0.03 mg/kg oral, Day 14): 154.9 ± 12.1 mg/dL
plasma insulin ([4]; 0.03 mg/kg oral, Day 14): 3.5 ± 2.1 ng/mL
plasma leptin (mg/dL) ([4]; 0.03 mg/kg oral, Day 14): 54.7 ± 19.0
plasma neutral fats ([4]; 0.03 mg/kg oral, Day 14): 50.9 ± 14.7 mg/dL
plasma total cholesterol ([4]; 0.03 mg/kg oral, Day 14): 165.6 ± 11.3 mg/dL
glycated hemoglobin (%) ([4]; 0.03 mg/kg oral, Day 28): 4.1 ± 0.1%
plasma adiponectin (μg/dL)) ([4]; 0.03 mg/kg oral, Day 28): 16.4 ± 3.8 µg/dL
plasma glucose ([4]; 0.03 mg/kg oral, Day 28): 167.0 ± 20.4 mg/dL
plasma insulin ([4]; 0.03 mg/kg oral, Day 28): 2.7 ± 0.8 ng/mL
plasma leptin (mg/dL) ([4]; 0.03 mg/kg oral, Day 28): 62.4 ± 18.1
plasma neutral fats ([4]; 0.03 mg/kg oral, Day 28): 54.4 ± 19.8 mg/dL
plasma total cholesterol ([4]; 0.03 mg/kg oral, Day 28): 170.3 ± 13.5 mg/dL
body weight ([4]; 0.03 mg/kg oral, Day 37): 41.0 ± 2.3 g
epididymal fat mass ([4]; 0.03 mg/kg oral): 0.72 ± 0.05 g
gastrocnemius muscle weight (g/100 g body weight) ([4]; 0.03 mg/kg oral): 0.407 ± 0.017 g/100 g body weight
hepatocyte weight ([4]; 0.03 mg/kg oral): 1.56 ± 0.11 g
mesenteric fat mass ([4]; 0.03 mg/kg oral): 0.57 ± 0.11 g
average amount of ingestion ([4]; 0.1 mg/kg oral): 2.7 ± 0.3 g/day
body weight (g) change ([4]; 0.1 mg/kg oral): -4.1 ± 0.7 g
body weight ([4]; 0.1 mg/kg oral, Day 0): 38.8 ± 3.5 g
glycated hemoglobin (%) ([4]; 0.1 mg/kg oral, Day 0): 4.5 ± 0.2%
plasma adiponectin (μg/dL)) ([4]; 0.1 mg/kg oral, Day 0): 16.8 ± 5.7 µg/dL
plasma glucose ([4]; 0.1 mg/kg oral, Day 0): 183.9 ± 35.2 mg/dL
plasma insulin ([4]; 0.1 mg/kg oral, Day 0): 4.3 ± 1.8 ng/mL
plasma leptin (mg/dL) ([4]; 0.1 mg/kg oral, Day 0): 55.7 ± 15.4
plasma neutral fats ([4]; 0.1 mg/kg oral, Day 0): 63.2 ± 9.1 mg/dL
plasma total cholesterol ([4]; 0.1 mg/kg oral, Day 0): 218.2 ± 19.0 mg/dL
glycated hemoglobin (%) ([4]; 0.1 mg/kg oral, Day 14): 4.0 ± 0.2 %
plasma adiponectin (μg/dL)) ([4]; 0.1 mg/kg oral, Day 14): 22.8 ± 3.8 µg/dL
plasma glucose ([4]; 0.1 mg/kg oral, Day 14): 159.6 ± 26.7 mg/dL
plasma insulin ([4]; 0.1 mg/kg oral, Day 14): 1.4 ± 0.6 ng/mL
plasma leptin (mg/dL) ([4]; 0.1 mg/kg oral, Day 14): 27.4 ± 19.1
plasma neutral fats ([4]; 0.1 mg/kg oral, Day 14): 25.2 ± 7.6 mg/dL
plasma total cholesterol ([4]; 0.1 mg/kg oral, Day 14): 129.1 ± 15.4 mg/dL
glycated hemoglobin (%) ([4]; 0.1 mg/kg oral, Day 28): 3.8 ± 0.2 %
plasma adiponectin (μg/dL)) ([4]; 0.1 mg/kg oral, Day 28): 19.2 ± 2.9 µg/dL
plasma glucose ([4]; 0.1 mg/kg oral, Day 28): 138.6 ± 17.3 mg/dL
plasma insulin ([4]; 0.1 mg/kg oral, Day 28): 1.4 ± 0.6 ng/mL
plasma leptin (mg/dL) ([4]; 0.1 mg/kg oral, Day 28): 29.2 ± 20.0
plasma neutral fats ([4]; 0.1 mg/kg oral, Day 28): 34.7 ± 12.5 mg/dL
plasma total cholesterol ([4]; 0.1 mg/kg oral, Day 28): 135.1 ± 15.4 mg/dL
body weight ([4]; 0.1 mg/kg oral, Day 37): 35.6 ± 3.9 g
epididymal fat mass ([4]; 0.1 mg/kg oral): 0.47 ± 0.10 g
gastrocnemius muscle weight (g/100 g body weight) ([4]; 0.1 mg/kg oral): 0.468 ± 0.033 g/100 g body weight
hepatocyte weight ([4]; 0.1 mg/kg oral): 1.37 ± 0.24 g
mesenteric fat mass ([4]; 0.1 mg/kg oral): 0.30 ± 0.08 g
body weight (in words) ([4]; obese mouse model fed with a high-fat diet): clear body weight decreasing action
